Assay results reported in patent US10588317B2, “Isoxazoline-substituted benzamides and analogues as insecticides” (priority 2015, dated 2020).

Legend:
Format in all cases: in vivo
Tetranychus urticae = Tetranychus urticae (two-spotted spider mite): feeding/contact activity; conditions: 192 h, application rate 200 ppm, mixed population (mobile stages), 8 days after infestation, read-out: mortality
Method: Bean leaf discs on agar in 24-well microtiter plates were sprayed with aqueous test solutions prepared from 10'000 ppm DMSO stock solutions. After drying the leaf discs were infested with a mite population of mixed ages. The samples were assessed for mortality on mixed population (mobile stages) 8 days after infestation.

Euschistus heros = Euschistus heros (neotropical brown stink bug), sprayed soybean leaves; conditions: 120 h, application rate 200 ppm, N2 nymphs, 5 days after infestation, read-out: effect in at least one of the two categories (mortality or growth inhibition)
In short: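 Soybean leaves on agar sprayed with aqueous dilutions of DMSO stocks, dried, then infested with N2 nymphs. Mortality and growth inhibition scored against untreated samples 5 days after infestation; application rate 200 ppm.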

Myzus persicae = Myzus persicae (green peach aphid): feeding/contact activity; conditions: 144 h, application rate 200 ppm, aphid population of mixed ages, 6 days after infestation, read-out: mortality
Method: Sunflower leaf discs were placed onto agar in a 24-well microtiter plate and sprayed with aqueous test solutions prepared from 10'000 ppm DMSO stock solutions. After drying, the leaf discs were infested with an aphid population of mixed ages. The samples were assessed for mortality 6 days after infestation.

Diabrotica balteata = Diabrotica balteata (corn root worm), sprayed maize sprouts; conditions: 96 h, application rate 200 ppm, L2 larvae, 4 days after infestation, read-out: effect in at least one of the two categories (mortality or growth inhibition)
In short: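 Maize sprouts on agar sprayed with aqueous dilutions of DMSO stocks, dried, then infested with L2 larvae (6–10 per well). Mortality and growth inhibition scored against untreated controls 4 days after infestation, at 200 ppm application rate.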

Thrips tabaci = Thrips tabaci (onion thrips): feeding/contact activity; conditions: 144 h, application rate 200 ppm, Thrips population of mixed ages, 6 days after infestation, read-out: mortality
Method: Sunflower leaf discs were placed on agar in 24-well microtiter plates and sprayed with aqueous test solutions prepared from 10'000 ppm DMSO stock solutions. After drying the leaf discs were infested with a Thrips population of mixed ages. The samples were assessed for mortality 6 days after infestation.

Spodoptera littoralis [1] = experiment: Spodoptera littoralis (Egyptian cotton leaf worm), uptake by lettuce roots from agar; conditions: 144 h, read-out: effect in at least one of the three categories (mortality, anti-feeding, or growth inhibition)
In short: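 Compound from 10'000 ppm DMSO stocks was mixed into agar, and lettuce grew on it for 7 days to take it up via roots. Cut leaves were infested with Spodoptera eggs; mortality, anti-feedant effect and growth inhibition scored 6 days later versus untreated samples.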

Plutella xylostella = Plutella xylostella (diamond back moth), artificial diet; conditions: 120 h, application rate 200 ppm, L2 larvae, 5 days after infestation, read-out: effect in at least one of the two categories (mortality or growth inhibition)
In short: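 Artificial diet in 24-well plates treated with aqueous test solutions made from 10'000 ppm DMSO stocks, dried, then infested with L2 larvae (10 to 15 per well). Mortality and growth inhibition scored against untreated samples 5 days after infestation; activity cut-off at least 80% in either category at 200 ppm.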

Spodoptera littoralis [2] = experiment: Spodoptera littoralis (Egyptian cotton leaf worm), sprayed cotton leaf discs; conditions: foliar, 72 h, application rate 200 ppm, L1 larvae, 3 days after infestation, read-out: control (mortality, anti-feeding effect, growth inhibition)
In short: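 Cotton leaf discs on agar sprayed with aqueous test solutions made from 10'000 ppm DMSO stock; after drying, infested with five L1 larvae. Mortality, anti-feeding and growth inhibition scored versus untreated samples 3 days after infestation; control counted when any category exceeds untreated.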

CNS(=O)(=O)N1C[C@@H](NC(=O)c2ccc(C3=NO[C@@](c4cc(Cl)cc(C(F)(F)F)c4)(C(F)(F)F)C3)cc2Cl)CO1 [Compound A115, 2-chloro-4-[(5S)-5-[3-chloro-5-(trifluoromethyl)phenyl]-5-(trifluoromethyl)-4H-isoxazol-3-yl]-N-[(4R)-2-(methylsulfamoyl)isoxazolidin-4-yl]benzamide]
≥ 80%: mortality at 200 ppm (Tetranychus urticae) | percent effect (mortality or growth inhibition) at 200 ppm (Euschistus heros) | mortality at 200 ppm (Myzus persicae) | percent effect (mortality or growth inhibition) at 200 ppm (Diabrotica balteata) | mortality at 200 ppm (Thrips tabaci) | percent control (mortality, anti-feedant effect or growth inhibition) at 12.5 ppm (Spodoptera littoralis [1]) | percent effect (mortality or growth inhibition) at 200 ppm (Plutella xylostella) | mortality at 200 ppm (Spodoptera littoralis [2])

CCS(=O)(=O)N1C[C@@H](NC(=O)c2ccc(C3=NO[C@@](c4cc(Cl)cc(Cl)c4)(C(F)(F)F)C3)cc2Cl)CO1 [Compound A117]
≥ 80%: mortality at 200 ppm (Tetranychus urticae) | percent effect (mortality or growth inhibition) at 200 ppm (Euschistus heros) | mortality at 200 ppm (Myzus persicae) | percent effect (mortality or growth inhibition) at 200 ppm (Diabrotica balteata) | mortality at 200 ppm (Thrips tabaci) | percent control (mortality, anti-feedant effect or growth inhibition) at 12.5 ppm (Spodoptera littoralis [1]) | percent effect (mortality or growth inhibition) at 200 ppm (Plutella xylostella) | mortality at 200 ppm (Spodoptera littoralis [2])

CCS(=O)(=O)N1C[C@@H](NC(=O)c2ccc(C3=NO[C@@](c4cc(Cl)cc(C(F)(F)F)c4)(C(F)(F)F)C3)cc2Cl)CO1 [Compound A122]
≥ 80%: mortality at 200 ppm (Tetranychus urticae) | percent effect (mortality or growth inhibition) at 200 ppm (Euschistus heros) | mortality at 200 ppm (Myzus persicae) | percent effect (mortality or growth inhibition) at 200 ppm (Diabrotica balteata) | mortality at 200 ppm (Thrips tabaci) | percent control (mortality, anti-feedant effect or growth inhibition) at 12.5 ppm (Spodoptera littoralis [1]) | percent effect (mortality or growth inhibition) at 200 ppm (Plutella xylostella) | mortality at 200 ppm (Spodoptera littoralis [2])

C=CCN(C)S(=O)(=O)N1CC(NC(=O)c2ccc(C3=NO[C@@](c4cc(Cl)c(Cl)c(Cl)c4)(C(F)(F)F)C3)cc2C)CO1 (stereo partly drawn) [Compound A82, N-[2-[allyl(methyl)sulfamoyl]isoxazolidin-4-yl]-2-methyl-4-[(5S)-5-(3,4,5-trichlorophenyl)-5-(trifluoromethyl)-4H-isoxazol-3-yl]benzamide]
≥ 80%: mortality at 200 ppm (Tetranychus urticae) | percent effect (mortality or growth inhibition) at 200 ppm (Euschistus heros) | mortality at 200 ppm (Myzus persicae) | percent effect (mortality or growth inhibition) at 200 ppm (Diabrotica balteata) | mortality at 200 ppm (Thrips tabaci) | percent control (mortality, anti-feedant effect or growth inhibition) at 12.5 ppm (Spodoptera littoralis [1]) | percent effect (mortality or growth inhibition) at 200 ppm (Plutella xylostella) | mortality at 200 ppm (Spodoptera littoralis [2])

Cc1cc(C2=NOC(c3cc(Cl)cc(Cl)c3)(C(F)(F)Cl)C2)ccc1C(=O)NC1CON(S(C)(=O)=O)C1 (stereo not drawn) [Compound A64]
≥ 80%: mortality at 200 ppm (Tetranychus urticae) | percent effect (mortality or growth inhibition) at 200 ppm (Euschistus heros) | mortality at 200 ppm (Myzus persicae) | percent effect (mortality or growth inhibition) at 200 ppm (Diabrotica balteata) | mortality at 200 ppm (Thrips tabaci) | percent effect (mortality, anti-feeding or growth inhibition) at 12.5 ppm (Spodoptera littoralis [1]; test rate 12.5 ppm, eggs, 6 days after infestation) | percent effect (mortality or growth inhibition) at 200 ppm (Plutella xylostella) | mortality at 200 ppm (Spodoptera littoralis [2])

CS(=O)(=O)N1C[C@@H](NC(=O)c2ccc(C3=NO[C@@](c4cc(Cl)cc(Cl)c4)(C(F)(F)F)C3)cc2Cl)CO1 [Compound A116]
≥ 80%: mortality at 200 ppm (Tetranychus urticae) | percent effect (mortality or growth inhibition) at 200 ppm (Euschistus heros) | mortality at 200 ppm (Myzus persicae) | percent effect (mortality or growth inhibition) at 200 ppm (Diabrotica balteata) | mortality at 200 ppm (Thrips tabaci) | percent control (mortality, anti-feedant effect or growth inhibition) at 12.5 ppm (Spodoptera littoralis [1]) | percent effect (mortality or growth inhibition) at 200 ppm (Plutella xylostella) | mortality at 200 ppm (Spodoptera littoralis [2])
